Experimental data from PubChem BioAssay (NCI).
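Five concentrations, 48 hours, 96-well plates. TGI denotes the concentration required for complete inhibition of growth.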

Assays:
Assay in all cases: growth of human tumour cells (NCI), 48 h
[1] = test system: 786-0 renal
[2] = test system: A498 renal
[3] = test system: A549 NSCLC
[4] = test system: ACHN renal
[5] = test system: BT-549 breast
[6] = test system: CAKI-1 renal
[7] = test system: CCRF-CEM leukemia
[8] = test system: COLO 205 colon
[9] = test system: DU-145 prostate
[10] = test system: EKVX NSCLC
[11] = test system: HCC-2998 colon
[12] = test system: HCT-116 colon
[13] = test system: HCT-15 colon
[14] = test system: HL-60(TB) leukemia
[15] = test system: HOP-62 NSCLC
[16] = test system: HS 578T breast
[17] = test system: HT29 colon
[18] = test system: IGROV1 ovarian
[19] = test system: K-562 leukemia
[20] = test system: KM12 colon
[21] = test system: LOX IMVI melanoma
[22] = test system: M14 melanoma
[23] = test system: MALME-3M melanoma
[24] = test system: MCF7 breast
[25] = test system: MDA-MB-231 breast
[26] = test system: MDA-MB-435
[27] = test system: MDA-N
[28] = test system: MOLT-4 leukemia
[29] = test system: NCI-H226 lung
[30] = test system: NCI-H23 lung
[31] = test system: NCI-H460 lung
[32] = test system: NCI-H522 lung
[33] = test system: NCI/ADR-RES ovarian
[34] = test system: OVCAR-3 ovarian
[35] = test system: OVCAR-4 ovarian
[36] = test system: OVCAR-5 ovarian
[37] = test system: OVCAR-8 ovarian
[38] = test system: PC-3 prostate
[39] = test system: RPMI-8226 leukemia
[40] = test system: RXF 393 renal
[41] = test system: SF-268 CNS
[42] = test system: SF-295 CNS
[43] = test system: SK-MEL-2 melanoma
[44] = test system: SK-MEL-28 melanoma
[45] = test system: SK-MEL-5 melanoma
[46] = test system: SK-OV-3 ovarian
[47] = test system: SN12C renal
[48] = test system: SNB-19 CNS
[49] = test system: SNB-75 CNS
[50] = test system: SR leukemia
[51] = test system: SW-620 colon
[52] = test system: T-47D breast
[53] = test system: U251 CNS
[54] = test system: UACC-62 melanoma
[55] = test system: UO-31 renal
[56] = test system: HOP-92 NSCLC
[57] = test system: SF-539 CNS
[58] = test system: TK-10 renal
[59] = test system: UACC-257 melanoma

Nc1nc2c(C(=O)O)c3ccc([N+](=O)[O-])cc3c(=O)n2c2ccccc12
TGI [1]: 48.8 µM | TGI [2]: > 100 µM | TGI [3]: > 100 µM | TGI [4]: > 100 µM | TGI [5]: 95.9 µM | TGI [6]: > 100 µM | TGI [7]: > 100 µM | TGI [8]: > 100 µM | TGI [9]: 49.4 µM | TGI [10]: > 100 µM | TGI [11]: > 100 µM | TGI [12]: 42.8 µM | TGI [13]: 71.8 µM | TGI [14]: > 100 µM | TGI [15]: > 100 µM | TGI [16]: 70.6 µM | TGI [17]: > 100 µM | TGI [18]: 86.6 µM | TGI [19]: > 100 µM | TGI [20]: > 100 µM | TGI [21]: 32.2 µM | TGI [22]: 64.2 µM | TGI [23]: > 100 µM | TGI [24]: 49.1 µM | TGI [25]: 79.1 µM | TGI [26]: > 100 µM | TGI [27]: > 100 µM | TGI [28]: > 100 µM | TGI [29]: 53.9 µM | TGI [30]: 64.9 µM | TGI [31]: > 100 µM | TGI [32]: 44.1 µM | TGI [33]: 52.4 µM | TGI [34]: 57 µM | TGI [35]: > 100 µM | TGI [36]: > 100 µM | TGI [37]: 34.8 µM | TGI [38]: 74.9 µM | TGI [39]: > 100 µM | TGI [40]: 45.6 µM | TGI [41]: 94.8 µM | TGI [42]: 95.5 µM | TGI [43]: 79.1 µM | TGI [44]: > 100 µM | TGI [45]: > 100 µM | TGI [46]: 74.1 µM | TGI [47]: 58.1 µM | TGI [48]: 89.6 µM | TGI [49]: 35.3 µM | TGI [50]: > 100 µM | TGI [51]: > 100 µM | TGI [52]: 68.9 µM | TGI [53]: 92.9 µM | TGI [54]: > 100 µM | TGI [55]: > 100 µM

CC(=O)O[C@@H]1C[C@@]2(C)[C@@H]3CC=C4[C@@H](C[C@H](O)C(=O)C4(C)C)[C@]3(C)C(=O)C[C@]2(C)[C@H]1[C@@](C)(O)C(=O)/C=C/C(C)(C)OC(C)=O
TGI [1]: > 70.4 µM | TGI [2]: 0.0591 µM | TGI [3]: > 48.2 µM | TGI [4]: 3.44 µM | TGI [5]: 0.713 µM | TGI [6]: 0.397 µM | TGI [7]: > 69.2 µM | TGI [8]: > 39.7 µM | TGI [9]: 34.1 µM | TGI [10]: 26 µM | TGI [11]: 16.5 µM | TGI [12]: > 72.9 µM | TGI [13]: 12.3 µM | TGI [14]: > 20.1 µM | TGI [15]: 5.29 µM | TGI [56]: 6.98 µM | TGI [16]: > 100 µM | TGI [17]: > 100 µM | TGI [18]: 10.2 µM | TGI [19]: > 100 µM | TGI [20]: 39.2 µM | TGI [21]: > 33 µM | TGI [22]: 14.9 µM | TGI [24]: > 100 µM | TGI [25]: > 21.8 µM | TGI [26]: 37.9 µM | TGI [27]: 14.8 µM | TGI [28]: > 31.6 µM | TGI [29]: 3.31 µM | TGI [30]: 24.1 µM | TGI [31]: 16.3 µM | TGI [32]: 4.55 µM | TGI [33]: 43.8 µM | TGI [34]: > 100 µM | TGI [35]: > 32.3 µM | TGI [36]: > 86 µM | TGI [37]: > 49.1 µM | TGI [38]: > 47 µM | TGI [39]: > 32.2 µM | TGI [41]: > 41.9 µM | TGI [42]: 34.1 µM | TGI [57]: 12.6 µM | TGI [43]: > 25.4 µM | TGI [44]: 29.4 µM | TGI [45]: 11 µM | TGI [46]: 51.5 µM | TGI [47]: > 44.8 µM | TGI [48]: 7.38 µM | TGI [49]: 25.3 µM | TGI [50]: > 53.4 µM | TGI [51]: 35.6 µM | TGI [52]: > 67.8 µM | TGI [58]: > 37.8 µM | TGI [53]: 10.5 µM | TGI [59]: 50.4 µM | TGI [54]: 27.9 µM | TGI [55]: 0.881 µM

COc1cc(CNc2nc3ccccc3nc2C(=O)O)cc(OC)c1OC
TGI [1]: > 100 µM | TGI [2]: > 100 µM | TGI [3]: > 100 µM | TGI [4]: > 100 µM | TGI [5]: > 100 µM | TGI [6]: > 100 µM | TGI [7]: > 100 µM | TGI [8]: > 100 µM | TGI [9]: > 100 µM | TGI [10]: > 100 µM | TGI [11]: > 100 µM | TGI [12]: > 100 µM | TGI [13]: > 100 µM | TGI [14]: > 100 µM | TGI [15]: > 100 µM | TGI [56]: > 100 µM | TGI [16]: > 100 µM | TGI [17]: > 100 µM | TGI [18]: > 100 µM | TGI [19]: > 100 µM | TGI [20]: > 100 µM | TGI [21]: > 100 µM | TGI [23]: > 100 µM | TGI [24]: > 100 µM | TGI [25]: > 100 µM | TGI [26]: > 100 µM | TGI [27]: > 100 µM | TGI [28]: > 100 µM | TGI [29]: > 100 µM | TGI [30]: > 100 µM | TGI [31]: > 100 µM | TGI [32]: > 100 µM | TGI [33]: > 100 µM | TGI [34]: > 100 µM | TGI [35]: > 100 µM | TGI [36]: > 100 µM | TGI [37]: > 100 µM | TGI [38]: > 100 µM | TGI [39]: > 100 µM | TGI [40]: > 100 µM | TGI [41]: > 100 µM | TGI [42]: > 100 µM | TGI [57]: > 100 µM | TGI [44]: > 100 µM | TGI [45]: > 100 µM | TGI [46]: > 100 µM | TGI [47]: > 100 µM | TGI [49]: > 100 µM | TGI [50]: > 100 µM | TGI [51]: > 100 µM | TGI [52]: > 100 µM | TGI [58]: > 100 µM | TGI [53]: > 100 µM | TGI [59]: > 100 µM | TGI [54]: > 100 µM | TGI [55]: > 100 µM

CC1CC(C#N)=C2NCCN2C1=O (stereo unspecified)
TGI [1]: > 100 µM | TGI [3]: > 100 µM | TGI [5]: > 100 µM | TGI [6]: > 100 µM | TGI [7]: > 100 µM | TGI [8]: 37.4 µM | TGI [9]: > 100 µM | TGI [10]: > 100 µM | TGI [11]: > 100 µM | TGI [13]: > 100 µM | TGI [14]: > 100 µM | TGI [15]: > 100 µM | TGI [16]: > 100 µM | TGI [17]: > 100 µM | TGI [18]: > 100 µM | TGI [19]: > 100 µM | TGI [20]: > 100 µM | TGI [21]: > 100 µM | TGI [22]: 33.5 µM | TGI [23]: > 100 µM | TGI [24]: 50.7 µM | TGI [25]: > 100 µM | TGI [26]: 50.1 µM | TGI [27]: 31.8 µM | TGI [28]: > 100 µM | TGI [29]: > 100 µM | TGI [30]: > 100 µM | TGI [31]: > 100 µM | TGI [32]: > 100 µM | TGI [33]: > 100 µM | TGI [34]: > 100 µM | TGI [35]: > 100 µM | TGI [37]: > 100 µM | TGI [38]: > 100 µM | TGI [39]: > 100 µM | TGI [40]: > 100 µM | TGI [41]: > 100 µM | TGI [42]: > 100 µM | TGI [57]: > 100 µM | TGI [43]: > 100 µM | TGI [44]: > 100 µM | TGI [45]: 28.5 µM | TGI [46]: > 100 µM | TGI [47]: > 100 µM | TGI [48]: > 100 µM | TGI [49]: > 100 µM | TGI [50]: > 100 µM | TGI [51]: > 100 µM | TGI [52]: > 100 µM | TGI [58]: > 100 µM | TGI [53]: > 100 µM | TGI [59]: > 100 µM | TGI [55]: > 100 µM
